Experimental data taken from ChEMBL document CHEMBL3627709, “Discovery of a Novel, Potent Spirocyclic Series of γ-Secretase Inhibitors” (J Med Chem, 2015).
Calls of active or inactive are those of the source. The calls are words filed in the database; no cut-off is given here.

Key:
[1] = molecular target: Voltage-gated inwardly rectifying potassium channel KCNH2 (Homo sapiens, UniProt Q12809); assay: Inhibition of human ERG
Gamma-secretase [2] = assay: Inhibition of gamma-secretase in HEK293 cell membranes using SPC99-Lon as substrate assessed as formation of amyloid beta 40 after 1 hr by electrochemiluminescence-based immunoassay; set-up: species or system Homo sapiens
Gamma-secretase [3] = assay: Inhibition of gamma-secretase in HEK293 cells using human APP Swedish/London double mutant as substrate assessed as formation of amyloid beta 40 after 5 to 6 hrs by sandwich immunoassay; assay type: cell-based
Gamma-secretase [4] = assay: Inhibition of gamma-secretase in HEK293 cells using human APP Swedish/London double mutant as substrate assessed as formation of amyloid beta 42 after 5 to 6 hrs by sandwich immunoassay; assay type: cell-based
Cytochrome P450 2C9 [5] = molecular target: T1, Cytochrome P450 2C9 (Homo sapiens, UniProt P11712); assay: Inhibition of CYP2C9 (unknown origin) co-incubated with substrate and protein; assay type: ADME
T1 sequence (P11712 whole entry): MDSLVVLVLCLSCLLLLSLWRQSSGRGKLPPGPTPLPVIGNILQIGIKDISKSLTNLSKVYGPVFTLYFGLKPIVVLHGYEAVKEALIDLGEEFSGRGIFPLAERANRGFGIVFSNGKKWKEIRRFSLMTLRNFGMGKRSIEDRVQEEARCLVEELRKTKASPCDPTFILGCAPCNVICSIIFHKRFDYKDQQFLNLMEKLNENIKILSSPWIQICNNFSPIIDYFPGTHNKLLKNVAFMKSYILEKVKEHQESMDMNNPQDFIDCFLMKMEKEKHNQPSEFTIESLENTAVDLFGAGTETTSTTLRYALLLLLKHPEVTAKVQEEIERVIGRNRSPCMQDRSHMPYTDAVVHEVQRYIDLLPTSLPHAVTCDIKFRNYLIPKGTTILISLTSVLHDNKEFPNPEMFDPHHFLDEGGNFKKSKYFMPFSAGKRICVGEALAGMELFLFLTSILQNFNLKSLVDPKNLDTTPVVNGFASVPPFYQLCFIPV

Cytochrome P450 2C9 [6] = molecular target: T1, Cytochrome P450 2C9; assay: Inhibition of CYP2C9 (unknown origin) preincubated with protein for 30 mins followed by substrate addition; assay type: ADME
Cytochrome P450 2D6 [7] = molecular target: T2, Cytochrome P450 2D6 (Homo sapiens, UniProt P10635); assay: Inhibition of CYP2D6 (unknown origin) co-incubated with substrate and protein; assay type: ADME
T2 sequence (P10635 whole entry): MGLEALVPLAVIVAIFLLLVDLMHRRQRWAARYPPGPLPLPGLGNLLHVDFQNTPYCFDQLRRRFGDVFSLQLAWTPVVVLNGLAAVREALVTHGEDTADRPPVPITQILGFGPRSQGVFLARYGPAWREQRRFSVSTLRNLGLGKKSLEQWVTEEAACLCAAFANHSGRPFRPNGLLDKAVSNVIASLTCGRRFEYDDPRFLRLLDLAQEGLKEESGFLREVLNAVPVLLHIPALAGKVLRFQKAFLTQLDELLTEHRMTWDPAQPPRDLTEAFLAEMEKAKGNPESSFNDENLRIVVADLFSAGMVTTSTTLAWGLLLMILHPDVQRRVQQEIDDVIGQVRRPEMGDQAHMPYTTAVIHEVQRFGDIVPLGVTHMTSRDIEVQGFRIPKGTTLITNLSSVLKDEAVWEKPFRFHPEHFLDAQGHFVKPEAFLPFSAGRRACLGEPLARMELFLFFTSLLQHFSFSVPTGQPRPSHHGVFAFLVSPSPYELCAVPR

Cytochrome P450 2D6 [8] = molecular target: T2, Cytochrome P450 2D6; assay: Inhibition of CYP2D6 (unknown origin) preincubated with protein for 30 mins followed by substrate addition; assay type: ADME
Cytochrome P450 3A4 [9] = molecular target: T3, Cytochrome P450 3A4 (Homo sapiens, UniProt P08684); assay: Inhibition of CYP3A4 (unknown origin) preincubated with protein for 30 mins followed by substrate addition; assay type: ADME
T3 sequence (P08684 whole entry): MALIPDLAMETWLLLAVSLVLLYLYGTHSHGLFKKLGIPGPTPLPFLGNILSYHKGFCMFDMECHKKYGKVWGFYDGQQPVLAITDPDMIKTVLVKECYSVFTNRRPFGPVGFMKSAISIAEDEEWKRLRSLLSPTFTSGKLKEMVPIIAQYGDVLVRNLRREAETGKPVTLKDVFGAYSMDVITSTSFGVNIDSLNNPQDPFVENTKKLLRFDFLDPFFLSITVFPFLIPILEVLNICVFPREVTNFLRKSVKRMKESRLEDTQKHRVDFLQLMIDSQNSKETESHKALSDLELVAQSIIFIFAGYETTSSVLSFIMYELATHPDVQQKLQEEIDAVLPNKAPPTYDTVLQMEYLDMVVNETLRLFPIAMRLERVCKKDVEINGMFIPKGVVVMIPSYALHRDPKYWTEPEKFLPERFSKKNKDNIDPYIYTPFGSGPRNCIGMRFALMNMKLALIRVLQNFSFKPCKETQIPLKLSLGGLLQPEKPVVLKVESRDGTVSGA

Cytochrome P450 3A4 [10] = molecular target: T3, Cytochrome P450 3A4; assay: Inhibition of CYP3A4 (unknown origin) co-incubated with substrate and protein; assay type: ADME
Rattus norvegicus [11] = assay: (§1) AUC (0 to 6 hrs) in Sprague-Dawley rat at 10 mg/kg, po by LC-MS/MS analysis; assay type: ADME, organism-based; set-up: time < 6 hr, dose 10 mg/kg, route oral; settings: in vivo, 6 h, BLD = below limit of detection
[12] = as §1; assay type: ADME, organism-based; set-up: time < 6 hr, dose 10 mg/kg, route oral; settings: Sprague-Dawley, in vivo
Rattus norvegicus [13] = assay: Antialzheimer activity in Sprague-Dawley rat assessed as reduction of total amylod beta level in plasma at 10 mg/kg, po after 3 hrs by immunoassay relative to vehicle-treated control; assay type: functional; set-up: scale not given: the % may be the effect or the level left
[14] = Ratio of drug level in brain to plasma in Sprague-Dawley rat at 10 mg/kg, po; assay type: ADME, organism-based; settings: brain and plasma, read-out: BPR
Rattus norvegicus [15] = assay: Antialzheimer activity in Sprague-Dawley rat assessed as reduction of total amylod beta level at 10 mg/kg, po after 3 hrs by immunoassay relative to vehicle-treated control; assay type: functional, organism-based
Rattus norvegicus [16] = assay: Antialzheimer activity in Sprague-Dawley rat assessed as reduction of total amylod beta level in cerebrospinal fluid at 10 mg/kg, po after 3 hrs by immunoassay relative to vehicle-treated control; assay type: functional; set-up: scale not given: the % may be the effect or the level left
Homo sapiens = organism: Homo sapiens; assay: Selectivity ratio of IC50 for human presenilin-2 to IC50 for human presenilin-1

Voltage-gated inwardly rectifying potassium channel KCNH2, sequence (Q12809 whole entry): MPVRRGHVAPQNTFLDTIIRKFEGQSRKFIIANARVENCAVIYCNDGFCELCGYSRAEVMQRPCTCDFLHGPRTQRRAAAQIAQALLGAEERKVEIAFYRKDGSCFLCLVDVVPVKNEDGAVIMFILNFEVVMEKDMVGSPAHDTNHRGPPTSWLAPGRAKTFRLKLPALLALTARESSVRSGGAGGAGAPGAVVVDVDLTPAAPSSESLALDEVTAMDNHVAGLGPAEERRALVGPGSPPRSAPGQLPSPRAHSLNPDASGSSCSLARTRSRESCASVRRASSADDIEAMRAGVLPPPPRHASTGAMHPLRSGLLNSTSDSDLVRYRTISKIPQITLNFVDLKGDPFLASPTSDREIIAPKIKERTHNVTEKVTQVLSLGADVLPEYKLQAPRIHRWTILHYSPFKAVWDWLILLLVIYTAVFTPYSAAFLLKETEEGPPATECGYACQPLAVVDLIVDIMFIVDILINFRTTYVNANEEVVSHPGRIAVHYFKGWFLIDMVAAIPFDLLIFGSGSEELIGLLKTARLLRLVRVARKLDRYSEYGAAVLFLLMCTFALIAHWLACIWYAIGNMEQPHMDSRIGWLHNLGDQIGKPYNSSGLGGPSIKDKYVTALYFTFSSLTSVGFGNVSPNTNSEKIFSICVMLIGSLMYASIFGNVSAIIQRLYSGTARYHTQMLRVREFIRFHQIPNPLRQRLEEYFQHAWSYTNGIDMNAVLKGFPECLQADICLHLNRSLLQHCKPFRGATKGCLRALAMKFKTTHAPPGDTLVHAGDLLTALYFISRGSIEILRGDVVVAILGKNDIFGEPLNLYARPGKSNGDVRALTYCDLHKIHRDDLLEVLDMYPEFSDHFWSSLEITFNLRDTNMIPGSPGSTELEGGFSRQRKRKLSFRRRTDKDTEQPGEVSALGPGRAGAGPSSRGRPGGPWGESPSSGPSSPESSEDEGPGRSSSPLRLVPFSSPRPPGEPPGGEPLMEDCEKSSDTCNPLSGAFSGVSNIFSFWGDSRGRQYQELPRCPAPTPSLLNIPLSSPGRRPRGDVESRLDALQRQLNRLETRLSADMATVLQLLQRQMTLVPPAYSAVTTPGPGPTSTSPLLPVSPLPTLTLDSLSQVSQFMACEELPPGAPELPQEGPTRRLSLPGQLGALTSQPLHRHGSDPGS

Compound | inhibition (INH) [1] | IC50 (Gamma-secretase [2]) [µM] | IC50 (Gamma-secretase [3]) [µM] | IC50 (Gamma-secretase [4]) [µM] | IC50 (Cytochrome P450 2C9 [5]) [µM] | IC50 (Cytochrome P450 2C9 [6]) [µM] | IC50 (Cytochrome P450 2D6 [7]) [µM] | IC50 (Cytochrome P450 2D6 [8]) [µM] | IC50 (Cytochrome P450 3A4 [9]) [µM] | IC50 (Cytochrome P450 3A4 [10]) [µM] | AUC (Rattus norvegicus [11]) | AUC(0-t) at 6 h [12] [nM·h] | Activity (Rattus norvegicus [13]) [%] | Kp [14] | Activity (Rattus norvegicus [15]) | Activity (Rattus norvegicus [16]) [%] | Ratio IC50 (Homo sapiens)
CC1(C)OCC2(CCC[C@@]3(S(=O)(=O)c4ccc(Cl)cc4)c4c(F)ccc(F)c4OC[C@@H]23)CO1 | Not Active | 0.0666 | 0.033 | 0.012 | – | – | – | – | – | – | – | – | – | – | – | – | –
O=S(=O)(N1CC[C@]2(CCC[C@@]3(S(=O)(=O)c4ccc(Cl)cc4)c4c(F)ccc(F)c4OC[C@@H]23)C1)C(F)(F)F | Not Active | 0.0233 | 0.013 | 0.008 | > 30 | > 30 | > 30 | > 30 | > 20 | > 30 | – | – | – | – | – | – | –
O=S(=O)(c1ccc(Cl)cc1)[C@@]12CCCC3(COC3)[C@@H]1COc1c(F)ccc(F)c12 | Not Active | 0.0101 | 0.013 | 0.007 | – | – | – | – | – | – | BLD | – | – | – | – | – | –
O=S(=O)(c1ccc(Cl)cc1)[C@@]12CCCC(CO)(CO)[C@@H]1COc1c(F)ccc(F)c12 | Not Active | 0.251 | – | – | 23.4 | 21.1 | > 30 | > 30 | 11.5 | 11 | – | – | – | – | – | – | –
O=S(=O)(N[C@H]1CC[C@@](c2cc(F)ccc2F)(S(=O)(=O)c2ccc(Cl)cc2)CC1)C(F)(F)F | – | – | – | – | < 0.3 | < 0.3 | > 30 | > 30 | – | – | – | 2350 | 71 | 0.2 | – | – | –
O=S(=O)(c1ccc(Cl)cc1)[C@@]12CCCC3(CCSCC3)[C@@H]1COc1c(F)ccc(F)c12 | Not Active | 0.0264 | 0.017 | 0.005 | – | – | – | – | – | – | BLD | – | – | – | inactive | – | –
O=C1OCC[C@]12CCC[C@@]1(S(=O)(=O)c3ccc(Cl)cc3)c3c(F)ccc(F)c3OC[C@@H]21 | Not Active | 0.228 | – | – | > 30 | > 30 | > 30 | > 30 | > 30 | > 30 | – | – | – | – | – | – | –
O=S(=O)(c1ccc(Cl)cc1)[C@@]12CCC[C@]3(CCOC3)[C@@H]1COc1c(F)ccc(F)c12 (stereo in doubt; (-)-14b) | Not Active | 0.0139 | 0.006 | 0.003 | > 20 | > 20 | > 20 | > 20 | > 20 | > 20 | – | – | 29 | – | – | 10 | –
O=S(=O)(N[C@@H]1CC[C@@]2(S(=O)(=O)c3ccc(Cl)cc3)c3c(F)ccc(F)c3OC[C@H]2C1)C(F)(F)F | – | – | – | – | < 0.3 | < 0.3 | > 30 | > 30 | 3.5 | 9.6 | – | – | – | – | – | – | –
O=S(=O)(c1ccc(Cl)cc1)C1(c2cc(F)ccc2F)CCCCC1 | – | 0.0141 | 0.041 | 0.027 | – | – | – | – | – | – | BLD | – | – | – | inactive | – | 1
O=S(=O)(c1ccc(Cl)cc1)[C@@]12CCC[C@]3(CCOC3)[C@@H]1COc1c(F)ccc(F)c12 (stereo in doubt; (+)-14b) | – | 0.142 | 0.104 | 0.063 | – | – | – | – | – | – | – | – | – | – | – | – | –
O=S(=O)(NC[C@@H]1OCC[C@@]2(S(=O)(=O)c3ccc(Cl)cc3)c3c(F)ccc(F)c3OC[C@@H]12)C(F)(F)F | – | – | – | – | 2.5 | 4.9 | 17.9 | 30 | 21.4 | > 30 | – | – | – | – | – | – | –
O=S1(=O)CCC2(CCC[C@@]3(S(=O)(=O)c4ccc(Cl)cc4)c4c(F)ccc(F)c4OC[C@@H]23)CC1 | Not Active | – | – | – | > 20 | > 20 | > 20 | > 20 | > 20 | > 20 | – | 3310 | – | 0.2 | inactive | – | –
